Patent US7977322B2 (Vertex Pharmaceuticals Incorporated, priority 2004, dated 2011)

Target: T1, ΔF508-CFTR (Homo sapiens, UniProt P13569, DEL508-508)
T1 construct: expressed in transfected cells
Assay: Membrane potential optical (FRET/VIPR) assay, identification of correction compounds
Assay type: cell-based
Conditions: Table 3, assay not given; for Emax: read-out: % Activity / % Efficacy (relative efficacy)
Summary of the method: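 NIH3T3 mouse fibroblasts stably expressing ΔF508-CFTR were exposed to compound for 16 h at 37° C in serum-free medium, then loaded with DiSBAC2(3)/CC2-DMPE. After addition of 10 μM forskolin plus 20 μM genistein in Cl⁻-free gluconate bath (pH 7.4), depolarization from Cl⁻ efflux was read by FRET (VIPR II).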

T1 sequence (P13569 with tags, fused parts or gaps DEL508-508): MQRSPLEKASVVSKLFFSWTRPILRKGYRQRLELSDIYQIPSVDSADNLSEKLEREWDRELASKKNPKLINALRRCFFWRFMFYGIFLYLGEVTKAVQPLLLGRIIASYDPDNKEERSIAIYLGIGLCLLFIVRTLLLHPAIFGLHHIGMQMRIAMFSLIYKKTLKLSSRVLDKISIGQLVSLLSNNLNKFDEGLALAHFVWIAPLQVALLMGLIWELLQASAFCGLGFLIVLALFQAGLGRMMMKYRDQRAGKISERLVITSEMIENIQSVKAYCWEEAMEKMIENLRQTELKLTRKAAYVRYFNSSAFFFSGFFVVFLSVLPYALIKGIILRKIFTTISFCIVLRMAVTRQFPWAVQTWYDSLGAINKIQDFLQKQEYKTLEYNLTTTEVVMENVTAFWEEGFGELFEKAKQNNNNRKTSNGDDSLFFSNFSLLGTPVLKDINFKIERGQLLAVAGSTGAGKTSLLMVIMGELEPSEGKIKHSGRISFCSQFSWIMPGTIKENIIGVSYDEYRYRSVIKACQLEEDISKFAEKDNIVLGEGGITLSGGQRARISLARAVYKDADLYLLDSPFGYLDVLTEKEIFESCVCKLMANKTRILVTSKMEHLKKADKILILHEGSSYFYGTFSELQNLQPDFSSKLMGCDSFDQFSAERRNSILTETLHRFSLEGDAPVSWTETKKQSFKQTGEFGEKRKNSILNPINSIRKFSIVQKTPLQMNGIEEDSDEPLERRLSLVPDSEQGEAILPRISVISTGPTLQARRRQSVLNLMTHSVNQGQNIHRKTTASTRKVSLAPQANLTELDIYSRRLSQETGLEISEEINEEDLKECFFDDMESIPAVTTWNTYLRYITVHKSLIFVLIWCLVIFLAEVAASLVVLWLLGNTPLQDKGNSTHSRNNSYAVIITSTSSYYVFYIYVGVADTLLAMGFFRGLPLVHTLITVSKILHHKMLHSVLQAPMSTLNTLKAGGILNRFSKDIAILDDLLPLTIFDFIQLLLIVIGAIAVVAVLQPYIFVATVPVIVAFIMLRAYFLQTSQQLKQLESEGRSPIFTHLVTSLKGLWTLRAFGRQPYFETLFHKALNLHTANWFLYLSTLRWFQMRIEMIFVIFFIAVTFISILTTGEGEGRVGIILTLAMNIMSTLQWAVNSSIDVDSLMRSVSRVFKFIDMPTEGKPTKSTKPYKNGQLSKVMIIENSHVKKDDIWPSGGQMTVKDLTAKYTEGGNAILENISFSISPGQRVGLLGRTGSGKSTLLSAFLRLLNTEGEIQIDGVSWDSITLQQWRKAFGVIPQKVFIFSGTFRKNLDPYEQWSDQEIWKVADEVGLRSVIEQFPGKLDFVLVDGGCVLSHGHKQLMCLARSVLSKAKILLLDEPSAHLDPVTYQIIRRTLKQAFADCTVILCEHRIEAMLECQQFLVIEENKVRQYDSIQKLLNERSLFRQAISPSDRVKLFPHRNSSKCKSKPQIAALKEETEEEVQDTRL

% Activity / % Efficacy (relative efficacy)	EC50 [µM]	Emax [%]	SMILES
+++ (“+++” means>100%)	< 10		COc1ccc(F)cc1Cc1cnc(NC(=O)C2(c3ccc4c(c3)OCO4)CC2)s1 [Example 182]
	< 10	> 100	Cc1ccccc1C(N[C@@H](CO)C(C)C)c1cnc(NC(=O)C2(c3ccc4c(c3)OCO4)CC2)s1 (stereo partly shown) [Example 479]
	< 10	> 100	C[C@@H](CO)NC(c1cnc(NC(=O)C2(c3ccc4c(c3)OCO4)CC2)s1)c1ccccc1Cl (stereo partly shown) [Example 424]
	25 to 60	< 25	CCN(CC)CCn1cc(Cc2ccccc2Cl)s/c1=N/C(=O)C1(c2ccc(OC)cc2)CC1 [Example 73]
	< 10	25 to 100	O=C(Nc1ncc(C(c2ccccc2Cl)N2CC[C@@H](O)C2)s1)C1(c2ccccc2C(F)(F)F)CC1 (stereo partly shown) [Example 442]
	< 10	25 to 100	COc1ccccc1C1(C(=O)Nc2ncc(Cc3ccccc3C#N)s2)CC1 [Example 68]
++ (“++” means between 25% to 100%)	< 10		O=C(Nc1ncc(C(c2ccccc2Cl)n2ccnc2)s1)C1(c2ccc3c(c2)OCO3)CC1 (stereo not shown) [Example 241]
	< 10	> 100	O=C(Nc1ncc(C(c2ccccc2Cl)N2CC[C@@H](O)C2)s1)C1(c2ccccc2Cl)CC1 (stereo partly shown) [Example 419]
	10 to 25	25 to 100	O=C1NOC[C@@H]1NC(c1cnc(NC(=O)C2(c3ccc4c(c3)OCO4)CC2)s1)c1ccccc1Cl (stereo partly shown) [Example 407]
	< 10	> 100	O=C(Nc1ncc([C@H](O)c2ccccc2Cl)s1)C1(c2ccc3c(c2)OCO3)CC1 [Example 323]
+++ (“+++” means>100%)	< 10		COc1ccccc1Sc1cnc(NC(=O)C2(c3ccc4c(c3)OCO4)CC2)s1 [Example 99]
	< 10	25 to 100	COc1ccc(C2(C(=O)Nc3ncc(Sc4ccccc4Cl)s3)CC2)cc1 [Example 36]
	< 10	> 100	COc1cccc(C(c2cnc(NC(=O)C3(c4ccc5c(c4)OCO5)CC3)s2)N2CCC[C@@H]2C(N)=O)c1 (stereo partly shown) [Example 370]
	< 10	> 100	O=C(Nc1ncc(C(c2ccccc2)N2CCOCC2)s1)C1(c2ccc3c(c2)OCO3)CC1 (stereo not shown) [Example 369]
+++ (“+++” means>100%)	< 10		COc1ccc(C2(C(=O)Nc3ncc(Cc4ncccc4OC)s3)CC2)cc1 [Example 263]
	< 10	25 to 100	O=C(Nc1ncc(Cc2ccccc2Cl)s1)C1(c2cccc(O)c2)CC1 [Example 316]
	< 10	> 100	O=C(Nc1ncc(C(c2ccccc2Cl)N2CC[C@@H](O)C2)s1)C1(c2ccc(Cl)cc2)CC1 (stereo partly shown) [Example 449]
	< 10	25 to 100	O=C(Nc1ncc(C(NCCN2CCCC2)c2ccccc2Cl)s1)C1(c2ccc3c(c2)OCO3)CC1 (stereo not shown) [Example 406]
+++ (“+++” means>100%)	< 10		O=C(Nc1ncc(Cc2cccc(F)c2Cl)s1)C1(c2ccc3c(c2)OCO3)CC1 [Example 159]
++ (“++” means between 25% to 100%)	25 to 60		CCN(CC)CCn1cc(Cc2ccccc2Cl)s/c1=N/C(=O)C1(c2ccc(OC)cc2)CC1 [Example 74]
	< 10	> 100	Cc1ccccc1C(N[C@@H](CO)CC(C)C)c1cnc(NC(=O)C2(c3ccc4c(c3)OCO4)CC2)s1 (stereo partly shown) [Example 477]
++ (“++” means between 25% to 100%)	< 10		CCN(C)CCOC(c1cnc(NC(=O)C2(c3ccc4c(c3)OCO4)CC2)s1)c1ccccc1Cl (stereo not shown) [Example 276]

% Activity / % Efficacy (relative efficacy)	EC50 [µM]	Emax [%]	SMILES
	< 10	> 100	COc1ccc(C2(C(=O)Nc3ncc(Cc4cccc(F)c4Cl)s3)CC2)cc1 [Example 89]
	< 10	> 100	COCC1CCCN1C(c1ccc(Cl)cc1)c1cnc(NC(=O)C2(c3ccc4c(c3)OCO4)CC2)s1 (stereo not shown) [Example 331]
+++ (“+++” means>100%)	< 10		COc1ccccc1C1(c2cnc(NC(=O)C3(c4ccc5c(c4)OCO5)CC3)s2)CC1 [Example 245]
+++ (“+++” means>100%)	< 10		COc1cccc(Cc2cnc(NC(=O)C3(c4ccc5c(c4)OCO5)CC3)s2)c1 [Example 181]
	< 10	> 100	O=C(Nc1ncc(C(c2ccccc2)N2CCCC2)s1)C1(c2ccc3c(c2)OCO3)CC1 (stereo not shown) [Example 359]
	10 to 25	25 to 100	CCC(c1cnc(NC(=O)C2(c3ccc4c(c3)OCO4)CC2)s1)N1CCC(O)CC1 (stereo not shown) [Example 396]
	10 to 25	25 to 100	CS(=O)(=O)c1ccc(C(c2cnc(NC(=O)C3(c4ccc5c(c4)OCO5)CC3)s2)N2CCC(O)CC2)cc1 (stereo not shown) [Example 380]
	< 10	> 100	CC(C)[C@H](CO)NC(c1cnc(NC(=O)C2(c3ccc4c(c3)OCO4)CC2)s1)c1cc(F)ccc1F (stereo partly shown) [Example 484]
	10 to 25	> 100	COc1ccc(C(c2cnc(NC(=O)C3(c4ccc5c(c4)OCO5)CC3)s2)N2CCCC2)cc1 (stereo not shown) [Example 362]
	< 10	> 100	O=C(Nc1ncc(C(c2ccccc2Cl)N2CC[C@@H](O)C2)s1)C1(c2ccccc2)CC1 (stereo partly shown) [Example 423]
	10 to 25	25 to 100	Cc1cc(NC(=O)C2(c3ccc4c(c3)OCO4)CC2)n(Cc2ccccc2)n1 [Example 297]
	10 to 25	> 100	COc1ccccc1C(c1cnc(NC(=O)C2(c3ccc4c(c3)OCO4)CC2)s1)N(C)C (stereo not shown) [Example 364]
	< 10	> 100	O=C(Nc1ncc(C(NCC2CCCCC2)c2ccccc2Cl)s1)C1(c2ccc3c(c2)OCO3)CC1 (stereo not shown) [Example 409]
+++ (“+++” means>100%)	< 10		CCOC(=O)c1sc(NC(=O)C2(c3ccc4c(c3)OCO4)CC2)nc1C(C)C [Example 109]
	< 10	> 100	CCC[C@@H](CO)NC(c1cnc(NC(=O)C2(c3ccc4c(c3)OCO4)CC2)s1)c1ccccc1Cl (stereo partly shown) [Example 485]
	< 10	25 to 100	COc1cccc(C(c2cnc(NC(=O)C3(c4ccc5c(c4)OCO5)CC3)s2)N2CCCCC2)c1 (stereo not shown) [Example 344]
	< 10	> 100	O=C(Nc1ncc(Cc2ccccc2Cl)s1)C1(c2ccc(-n3cncn3)cc2)CC1 [Example 307]
++ (“++” means between 25% to 100%)	25 to 60		COC(=O)Cn1cc(Cc2ccccc2Cl)sc1=NC(=O)C1(c2ccc(OC)cc2)CC1 [Example 72]
+++ (“+++” means>100%)	< 10		O=C(Nc1ncc(-c2ccccc2)s1)C1(c2ccc3c(c2)OCO3)CC1 [Example 86]
	< 10	> 100	CCCC[C@@H](CO)NC(c1cnc(NC(=O)C2(c3ccc4c(c3)OCO4)CC2)s1)c1ccccc1Cl (stereo partly shown) [Example 491]
	10 to 25	25 to 100	Cc1nn(-c2ccccc2)c(NC(=O)C2(c3ccc4c(c3)OCO4)CC2)c1-c1ccccc1 [Example 291]
	< 10	> 100	COCC1CCCN1C(c1ccccc1)c1cnc(NC(=O)C2(c3ccc4c(c3)OCO4)CC2)s1 (stereo not shown) [Example 355]
